Patent US7250410B2, “Cyclic nucleotide phosphodiesterase inhibitors, preparation and uses thereof” (Via Pharmaceuticals, Inc., priority 2001, dated 2007)
Where “and” joins values, the source holds several entries; their conditions need not be identical. Equal values may be shown once.

molecular target: PDE4; experiment: Inhibition of PDE4, radioenzymatic phosphodiesterase assay; format: biochemical, bovine; settings: Table 1, formula (III); 1 μM cyclic AMP
Method in brief: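 PDE4 partially purified from bovine aortic media by 105,000 g centrifugation and anion-exchange chromatography with an NaCl gradient. Activity measured radioenzymatically: product nucleoside separated from nucleotides by anion exchange and counted by liquid scintillation.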

Compound	IC50 [µM]
COc1cc2c(cc1OC)C(c1ccc(-c3cccs3)cc1)=NN(C)C(=O)C2 [IIIau, 7,8-dimethoxy-3-methyl-1-[4-(2-thienyl)phenyl]-3,5-dihydro-4H-2,3-benzodiazepin-4-one]	3.8
COc1cccc(-c2ccc(C3=NN(C)C(=O)Cc4cc(OC)c(OC)cc43)cc2)c1 [IIIaj, 7,8-dimethoxy-1-[4-(3-methoxyphenyl)phenyl]-3-methyl-3,5-dihydro-4H-2,3-benzodiazepin-4-one]	2.7
COc1cc2c(cc1OC)C(c1ccc(-c3cccc(NC(C)=O)c3)cc1)=NN(C)C(=O)C2 [IIIam, 1-[4-(3-acetamidophenyl)phenyl]-7,8-dimethoxy-3-methyl-3,5-dihydro-4H-2,3-benzodiazepin-4-one]	1.7
COc1cc2c(cc1OC)C(c1ccc(-c3cccc(C)c3)cc1)=NN(C)C(=O)C2 [IIIar, 7,8-dimethoxy-3-methyl-1-[4-(3-methylphenyl)phenyl]-3,5-dihydro-4H-2,3-benzodiazepin-4-one]	2.9
COc1cc2c(cc1OC)C(c1cccc3ccccc13)=NN(C)C(=O)C2 [IIIaa, 7,8-dimethoxy-3-methyl-1-(1-naphthyl)-3,5-dihydro-4H-2,3-benzodiazepin-4-one]	9.3

same assay, conditions: Table 1, formula (III); compound at 10 μM

Compound	PDE4 percentage inhibition at 10 μM [%]
CCN1N=C(c2ccccc2)c2cc(OC)c(OC)cc2CC1=O [IIIag, 3-ethyl-7,8-dimethoxy-1-phenyl-3,5-dihydro-4H-2,3-benzodiazepin-4-one]	36
COC(=O)CCCCCCCCCCCN1N=C(c2ccccc2)c2cc(OC)c(OC)cc2CC1=O [IIIae, 7,8-dimethoxy-3-(12-methoxy-12-oxododecyl)-1-phenyl-3,5-dihydro-4H-2,3-benzodiazepin-4-one]	19

same assay, conditions: Table 2, formula (XXII); 1 μM cyclic AMP

Compound	IC50 [µM]
CCOc1cc2c(cc1OC)C(c1ccccc1)=NC(c1ccccc1)C(=O)N2 (stereo not drawn) [XXIIba, 3,5-diphenyl-8-ethoxy-7-methoxy-1,3-dihydro-2H-1,4-benzodiazepin-2-one]	6.7

same assay, conditions: Table 2, formula (XXII); compound at 10 μM

Compound	PDE4 percentage inhibition at 10 μM [%]
COc1ccc2c(c1)C(c1ccccc1)=NCC(=O)N2 [XXIIao, 7-methoxy-5-phenyl-1,3-dihydro-2H-1,4-benzodiazepin-2-one]	11.5
COc1cc2c(cc1OC)C(c1ccccc1)=N[C@@H](CCCCN)C(=O)N2 [XXIIaw, (S)-3-(4-aminobutyl)-7,8-dimethoxy-5-phenyl-1,3-dihydro-2H-1,4-benzodiazepin-2-one]	4
COc1cc2c(cc1OC)C(c1ccccc1)=N[C@@H](Cc1ccccc1)C(=O)N2 [XXIIau, (S)-3-benzyl-7,8-dimethoxy-5-phenyl-1,3-dihydro-2H-1,4-benzodiazepin-2-one]	42.6
COc1cc2c(cc1OC)C(c1ccccc1Br)=NCC(=O)N2 [XXIIal, 5-(2-bromophenyl)-7,8-dimethoxy-1,3-dihydro-2H-1,4-benzodiazepin-2-one]	23.9

same assay, conditions: Table 3, formula (II); 1 μM cyclic AMP

Compound	IC50
[(7,8-dimethoxy-1-ethyl-2-oxo-2,3-dihydro-1H-1,4-benzodiazepin-3-yl)benz-2-yl]carboxamide [IIci]	1.45 µM
CCN1C(=O)CN=C(c2cccc(Br)c2)c2cc(OC)c(OC)cc21 [IIbm, 5-(3-bromophenyl)-1-ethyl-7,8-dimethoxy-1,3-dihydro-2H-1,4-benzodiazepin-2-one]	7.3 µM
COc1cc2c(cc1OC)C(c1ccccc1)=NC(c1ccccc1CCNC(C)=O)C(=O)N2 (stereo not drawn) [IIcm, N-[2-(7,8-dimethoxy-2-oxo-5-phenyl-2,3-dihydro-1H-1,4-benzodiazepin-3-yl)benzyl]methylacetamide]	1.9 µM
CCN1C(=O)C(Cc2ccccc2[N+](=O)[O-])N=C(c2ccccc2)c2cc(OC)c(OC)cc21 (stereo not drawn) [IIbh, 7,8-dimethoxy-1-ethyl-3-(2-nitrobenzyl)-5-phenyl-1,3-dihydro-2H-1,4-benzodiazepin-2-one]	2.4 µM
COc1cc2c(cc1OC)N(C)C(=O)CN=C2c1cccc(Br)c1 [IIax, 5-(3-bromophenyl)-7,8-dimethoxy-1-methyl-1,3-dihydro-2H-1,4-benzodiazepin-2-one]	8.2 µM
CCN1C(=O)C(Cc2ccccc2OC)N=C(c2ccccc2)c2cc(OC)c(OC)cc21 (stereo not drawn) [IIcr, 1-ethyl-7,8-dimethoxy-3-(2-methoxybenzyl)-5-phenyl-1,3-dihydro-2H-1,4-benzodiazepin-2-one]	2.7 µM
COc1cccc(C2=NCC(=O)N(C)c3cc(OC)c(OC)cc32)c1 [IIal, 7,8-dimethoxy-5-(3-methoxyphenyl)-1-methyl-1,3-dihydro-1,4-benzodiazepin-2-one]	10 µM
CCN1C(=O)C(Cc2ccccc2N)N=C(c2ccccc2)c2cc(OC)c(OC)cc21 (stereo not drawn) [IIca, 7,8-dimethoxy-1-ethyl-3-(2-aminobenzyl)-5-phenyl-1,3-dihydro-2H-1,4-benzodiazepin-2-one]	2.5 µM
CCOc1cc2c(cc1OC)C(c1ccccc1)=NC(Cc1ccccc1)C(=O)N2CC (stereo not drawn) [IIbb, 3-benzyl-8-ethoxy-1-ethyl-7-methoxy-5-phenyl-1,3-dihydro-2H-1,4-benzodiazepin-2-one]	3.13 µM
CCN1C(=O)CN=C(c2ccc(CCc3ccccc3)cc2)c2cc(OC)c(OC)cc21 [IIbu, 1-ethyl-7,8-dimethoxy-5-[4-(2-phenylethyl)phenyl]-1,3-dihydro-2H-1,4-benzodiazepin-2-one]	12.4 µM and 18.7 µM
CCN1C(=O)C(Cc2cccc(C(F)(F)F)c2)N=C(c2ccccc2)c2cc(OC)c(OC)cc21 (stereo not drawn) [IIdb, 1-ethyl-7,8-dimethoxy-5-phenyl-3-[3-(trifluoromethyl)benzyl]-1,3-dihydro-2H-1,4-benzodiazepin-2-one]	23 µM

same assay, conditions: Table 3, formula (II); compound at 10 μM

Compound	PDE4 percentage inhibition at 10 μM [%]
COc1cc2c(cc1OC)C(c1ccccc1)=NC(c1ccccc1CNC(C)=O)C(=O)N2 (stereo not drawn) [IIcf, N-[2-(7,8-dimethoxy-2-oxo-5-phenyl-2,3-dihydro-1H-1,4-benzodiazepin-3-yl)benzyl]acetamide]	21
C#CCC1N=C(c2ccccc2)c2cc(OC)c(OC)cc2N(CC)C1=O (stereo not drawn) [IIbt, 1-ethyl-7,8-dimethoxy-5-phenyl-3-prop-2-ynyl-1,3-dihydro-2H-1,4-benzodiazepin-2-one]	38.4
COc1cc2c(cc1OC)N(C)C(=O)CN=C2c1cc(C(F)(F)F)cc(C(F)(F)F)c1 [IIaf, 7,8-dimethoxy-1-methyl-5-(3, 5 bistrifluoromethylphenyl)-1,3-dihydro-2H-1,4-benzodiazepin-2-one]	11.7
COc1ccc2cc(C3=NCC(=O)N(C)c4cc(OC)c(OC)cc43)ccc2c1 [IIap, 7,8-dimethoxy-5-(6-methoxy-2-naphthyl)-1-methyl-1,3-dihydro-1,4-benzodiazepin-2-one]	18
CCN1C(=O)CN=C(c2ccccc2)c2cc(O)c(O)cc21 [IIbk, 1-ethyl-7,8-dihydroxy-5-phenyl-1,3-dihydro-2H-1,4-benzodiazepin-2-one]	14.2
CCOC(=O)CN1C(=O)CN=C(c2ccccc2)c2cc(OCC)c(OCC)cc21 [IIbi, ethyl (7,8-diethoxy-2-oxo-5-phenyl-2,3-dihydro-1H-1,4-benzodiazepin-1-yl)acetate]	23.1
COc1cc2c(cc1OC)N(C)C(=O)CN=C2c1ccco1 [IIah, 5-(2-furyl)-7,8-dimethoxy-1-methyl-1,3-dihydro-1,4-benzodiazepin-2-one]	36
